Data on two compounds can be found in patent US20050202511A1, “AMP-activated protein kinase (AMPK) inhibitor screening assay” (priority 2002, published 2005).

Values joined by “and” are separate entries in the source; they are usually repeats but may differ in a detail not shown here. Equal entries are not always repeated. Where two headings read alike, the source gives them in different places. Where only a bound is given, the exact number is not on record here.

The target in one assay is T1, CLC2 CBS1-2 (WT) (Homo sapiens, UniProt P51788).
T1 construct: DNAs encoding residues 582-840 of CLC2; made in house; host or cells: E. coli BL21 (DE3)
T1 sequence (P51788 582-840): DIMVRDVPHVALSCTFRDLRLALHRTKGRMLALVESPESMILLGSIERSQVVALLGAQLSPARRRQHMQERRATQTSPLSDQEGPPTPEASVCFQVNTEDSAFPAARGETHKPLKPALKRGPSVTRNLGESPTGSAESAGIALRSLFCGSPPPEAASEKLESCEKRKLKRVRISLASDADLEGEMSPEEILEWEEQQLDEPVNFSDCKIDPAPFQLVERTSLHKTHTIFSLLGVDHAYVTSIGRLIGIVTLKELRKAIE
As to the kind of experiment: Filter binding assay, GST-CBS domain fusion. Particulars: single-site model.

In the next assay the target is T2, IMPDH2 Tetramer (R224P) (Homo sapiens, UniProt P12268, R224P).
T2 construct: the full-length protein (1-514); His tag (pHAT20 vector); made in house; host or cells: E. coli
As to the kind of experiment: Filter binding assay, full-length protein. An excerpt: (§1) For IMPDH2, DNAs encoding residues 112-232 or the full-length protein (1-514) were amplified using human liver cDNA (Clontech) as template, and cloned into pHAT20 (Clontech) using 5′-AgeI and 3′-KpnI sites added to the primers. For the other constructs, DNAs encoding residues 582-840 of CLC2, or 416-551 of cystathionine â-synthase, were amplified using human liver cDNA as template, and cloned into pGEX-KG as above using 5′-BamHI and 3′-XhoI sites added to the primers. All mutations were created using the Stratagene QuikChange Site-directed Mutagenesis system.
(§2) The IMPDH2 constructs were His-tagged and were purified on chelating-Sepharose (Pharmacia) charged with 50 mM CoCl2 according to manufacturer's instructions.
(§3) Various concentrations of [^14C]-AMP, [γ^32P] […] Reactions were stopped by spotting 10 ìl onto a Millipore MF Filter Membrane disc and rapidly washing under high vacuum with 1 ml of ice-cold TBS. Radioactivity was determined on the filters by scintillation counting. Non-specific binding (which was trivial) was determined by performing the assay with GST as a control, and was subtracted. […] Data were fitted to the binding models given in the text, using GraphPad Prism 3. Estimates of parameters resulting from fits are quoted in the text and Table 1±standard error, and the curves shown in figures are theoretical curves obtained using those estimates.

For another assay, the target named is T3, IMPDH2 Tetramer (WT) (Homo sapiens, UniProt P12268).
T3 construct: the full-length protein (1-514); His tag (pHAT20 vector); made in house; host or cells: E. coli
The assay can be described thus: Filter binding assay, full-length protein. To be noted: for Kd: read-out: B0.5.
Description: as §1, §2, §3

Assay [1] addresses T4, full-length IMPDH2 (wild type) (Homo sapiens, UniProt P12268).
T4 construct: DNAs encoding residues 112-232 or the full-length protein (1-514) were amplified using human liver cDNA; His tag (vector pHAT20); made in house; host or cells: E. coli
The assay can be described thus: Enzymatic assay of IMPDH2. It is filed as biochemical. The method, then: (§4) IMPDH2 was assayed by following the increase in absorbance at 340 nm due to formation of NADH in a BMG Fluostar Optima plate reader at 30° C. in plate mode. The assay buffer contained 50 mM Tris/HCl, 100 mM KCl, 1 mM DTT, 3 mM EDTA, and 5 mM MgCl. […] The total volume was 200 μl and the reaction started by addition of IMP (or NAD^+ where [IMP] was the variable).

Assay [2] concerns the target T5, full-length IMPDH2 (R224P) (Homo sapiens, UniProt P12268, R224P).
T5 construct: DNAs encoding residues 112-232 or the full-length protein (1-514) were amplified using human liver cDNA; His tag (vector pHAT20); made in house; host or cells: E. coli
As to the kind of experiment: Enzymatic assay of IMPDH2. In kind it is biochemical. To be noted: highest concentration used 2 mM. The method, then:
as §4

Description for CLC2 CBS1-2 (WT): DNA encoding the CBS domain pair from the chloride channel CLC2 was also cloned and expressed.
ATP or [^35S]SAM were incubated with GST-CBS domain fusions (1 ìM for WT, up to 20 μM for some mutants) for 10 min at 25° C. in a 20 il total volume in TBS. Reactions were stopped by spotting 10 ìl onto a Millipore MF Filter Membrane disc and rapidly washing under high vacuum with 1 ml of ice-cold TBS. Radioactivity was determined on the filters by scintillation counting. Non-specific binding (which was trivial) was determined by performing the assay with GST as a control, and was subtracted. […] Data were fitted to the binding models given in the text, using GraphPad Prism 3.

`Nc1ncnc2c1ncn2[C@@H]1O[C@H](COP(=O)(O)O)[C@@H](O)[C@H]1O` [AMP, adenosine monophosphate] displayed a Kd on CLC2 CBS1-2 (WT) of 1060 ± 80 µM.
`Nc1ncnc2c1ncn2[C@@H]1O[C@H](COP(=O)(O)OP(=O)(O)OP(=O)(O)O)[C@@H](O)[C@H]1O` [ATP]: the “h (Hill coefficient)” value at IMPDH2 Tetramer (R224P) was 0.9 ± 0.1; at IMPDH2 Tetramer (WT), 1.7 and 1.7 ± 0.2. Moreover, the Kd at IMPDH2 Tetramer (R224P) (Hill equation, 4 sites, read-out: B0.5) turned out to be 64000 ± 5000 µM; at IMPDH2 Tetramer (WT) (Hill equation, 4 sites), 770 µM; at IMPDH2 Tetramer (WT), 760 µM. Moreover, the “Hill coefficient of activation” value in assay [1] came out at 1.3±0.1. The “stimulation of IMPDH activity (Vmax)” value in assay [1] is listed as over 4 fold. In addition, the EC50 came out at 440 µM in assay [1] (read-out: A0.5 for ATP activation, as printed in discussion) and 440 ± 50 µM in assay [1] (read-out: half-maximal effect). Moreover, the effect on activity result in assay [2] is on record as “no effect”.
